Test results taken from patent US9309242B2, “Substituted pyrido[2,3-b]pyrazines as FGFR kinase inhibitors” (priority 2011, dated 2016).
pIC50: −log10 of the molar value. Read-outs that look alike come from different tables or passages of the source.

Legend:
FGFR1 (h) = FGFR1 (h) (Homo sapiens, UniProt P11362); test: FGFR1 (enzymatic assay), TR-FRET; assay type: biochemical; conditions: read-out: FGFR 1 pIC50 (converted)
FGFR2 (h) = FGFR2 (h) (Homo sapiens, UniProt P21802); test: FGFR2 (enzymatic assay), TR-FRET; assay type: biochemical; conditions: enzymatic assay, read-out: FGFR 2 pIC50 (converted)
How it was run: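 hFGFR2 150 ng/ml; Btn-Flt3 500 nM; ATP 0.4 μM; 50 mM HEPES pH 7.5, 6 mM MnCl2, 1 mM DTT, 0.1 mM Na3VO4, 0.01% Triton-X-100; 1% DMSO final.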

FGFR3 (h) = FGFR3 (h) (Homo sapiens, UniProt P22607); test: FGFR3 (enzymatic assay), TR-FRET; assay type: biochemical; conditions: read-out: FGFR 3 pIC50 (converted)
Source text: Time-Resolved Fluorescence Resonance Energy Transfer (TR-FRET) signal (ex340 nm.

FGFR4 (h) = FGFR4 (h) (Homo sapiens, UniProt P22455); test: FGFR4 (enzymatic assay), TR-FRET; assay type: biochemical; conditions: FGFR 4 pIC50, enzymatic assay
KDR (h) = KDR (h) (Homo sapiens, UniProt P35968); test: KDR (VEGFR2) (enzymatic assay), TR-FRET; assay type: biochemical; conditions: read-out: VEGFR 2 (KDR) pIC50 (converted)
How it was run: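 Phosphorylation of biotinylated Flt3 peptide (500 nM) by 150 ng/ml enzyme was measured at 3 μM ATP in Mn2+-containing HEPES buffer, pH 7.5, over 120 min at room temperature. Detection used Eu-anti-P-Tyr and SA-XL-665 TR-FRET.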

[1] = molecular target: T1, Ba/F3-FGFR1-transfected cells (Homo sapiens, UniProt P11362); test: Ba/F3-FGFR1 (minus IL3) cellular proliferation assay, Alamar Blue; assay type: cell-based
T1 construct: BAF3-FGFR1 (MIN IL3) pIC50; other: minus IL3
How it was run: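 Ba/F3-FGFR1 cells, 20000/well, RPMI-1640 + 10% FBS + 2 mM L-Gln; compound in DMSO; 24 h, 37 °C, 5% CO2; Alamar Blue 4 h; RFU ex 540/em 590.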

[2] = system: Ba/F3-FGFR1-transfected cells; test: Ba/F3-FGFR1 (plus IL3) cellular proliferation assay, counterscreen with 10 ng/ml murine IL3; assay type: cell-based; conditions: plus IL3 (10 ng/ml murine IL3, counterscreen); read-out: BAF3-FGFR1 (PLUS IL3) pIC50 (converted)
How it was run: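 Proliferation read-out: resazurin-based Alamar Blue fluorescence (540/590 nm) after 4 h, following 24 h compound treatment of 20000 Ba/F3-FGFR1 cells per well in 10% FBS RPMI at 37° C. IL3 counterscreen used the same protocol plus 10 ng/ml murine IL3.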

[3] = molecular target: T2, Ba/F3-FGFR3-transfected cells (Homo sapiens, UniProt P22607); test: Ba/F3-FGFR3 (minus IL3) cellular proliferation assay, Alamar Blue; assay type: cell-based
T2 construct: BAF3-FGFR3 (MIN IL3) pIC50; other: minus IL3
How it was run: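 FGFR3-Ba/F3, 20000 cells/well, RPMI-1640 + 10% FBS, no phenol red; cpd in DMSO; 24 h, 37° C/5% CO2. Alamar Blue 4 h, RFU ex540/em590. Counterscreen: + murine IL3 10 ng/ml.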

[4] = system: Ba/F3-KDR-transfected cells; test: Ba/F3-KDR (plus IL3) cellular proliferation assay, counterscreen with 10 ng/ml murine IL3; assay type: cell-based; conditions: plus IL3 (10 ng/ml murine IL3, counterscreen); read-out: BAF3-KDR (PLUS IL3) pIC50 (converted)
How it was run: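 Compound in DMSO was dispensed first, then transfected cells in serum-containing RPMI-1640 were added. After a 24 h incubation, viability was gauged by resazurin reduction over 4 h, measured as fluorescence.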

[5] = molecular target: Ba/F3-FGFR4-transfected cells (Homo sapiens, UniProt P22455); test: Ba/F3-FGFR4 cellular proliferation assay, Alamar Blue; assay type: cell-based
How it was run: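 Step one: compound dilutions in DMSO are sprayed into wells. Step two: transfected Ba/F3-FGFR4 cells are added at 20000 per well and incubated 24 hours at 37° C. Step three: Alamar Blue is added for 4 hours and relative fluorescence is measured.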

[6] = average values if tested multiple times

FGFR4 (h), sequence (P22455 22-802): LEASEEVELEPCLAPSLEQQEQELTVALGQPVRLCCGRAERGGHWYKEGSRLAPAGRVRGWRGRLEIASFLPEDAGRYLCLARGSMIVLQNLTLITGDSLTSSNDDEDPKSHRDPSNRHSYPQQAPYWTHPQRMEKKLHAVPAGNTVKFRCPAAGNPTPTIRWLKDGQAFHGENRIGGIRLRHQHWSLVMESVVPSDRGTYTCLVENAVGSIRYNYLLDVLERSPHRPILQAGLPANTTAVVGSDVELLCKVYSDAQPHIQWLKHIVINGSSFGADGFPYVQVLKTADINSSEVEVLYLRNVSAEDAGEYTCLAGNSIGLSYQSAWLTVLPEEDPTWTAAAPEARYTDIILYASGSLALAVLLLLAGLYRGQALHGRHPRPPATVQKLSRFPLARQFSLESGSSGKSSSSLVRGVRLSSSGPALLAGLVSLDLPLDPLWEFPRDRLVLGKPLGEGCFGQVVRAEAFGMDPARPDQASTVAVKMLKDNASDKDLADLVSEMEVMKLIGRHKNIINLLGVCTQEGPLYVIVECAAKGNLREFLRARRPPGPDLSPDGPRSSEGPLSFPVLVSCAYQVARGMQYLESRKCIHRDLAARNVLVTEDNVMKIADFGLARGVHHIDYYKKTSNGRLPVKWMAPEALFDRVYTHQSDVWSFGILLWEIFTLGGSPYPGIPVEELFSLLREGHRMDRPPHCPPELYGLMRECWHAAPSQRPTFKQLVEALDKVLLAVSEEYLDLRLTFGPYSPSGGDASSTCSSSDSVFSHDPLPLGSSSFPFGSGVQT
Ba/F3-FGFR4-transfected cells, sequence (P22455 whole entry, change not shown): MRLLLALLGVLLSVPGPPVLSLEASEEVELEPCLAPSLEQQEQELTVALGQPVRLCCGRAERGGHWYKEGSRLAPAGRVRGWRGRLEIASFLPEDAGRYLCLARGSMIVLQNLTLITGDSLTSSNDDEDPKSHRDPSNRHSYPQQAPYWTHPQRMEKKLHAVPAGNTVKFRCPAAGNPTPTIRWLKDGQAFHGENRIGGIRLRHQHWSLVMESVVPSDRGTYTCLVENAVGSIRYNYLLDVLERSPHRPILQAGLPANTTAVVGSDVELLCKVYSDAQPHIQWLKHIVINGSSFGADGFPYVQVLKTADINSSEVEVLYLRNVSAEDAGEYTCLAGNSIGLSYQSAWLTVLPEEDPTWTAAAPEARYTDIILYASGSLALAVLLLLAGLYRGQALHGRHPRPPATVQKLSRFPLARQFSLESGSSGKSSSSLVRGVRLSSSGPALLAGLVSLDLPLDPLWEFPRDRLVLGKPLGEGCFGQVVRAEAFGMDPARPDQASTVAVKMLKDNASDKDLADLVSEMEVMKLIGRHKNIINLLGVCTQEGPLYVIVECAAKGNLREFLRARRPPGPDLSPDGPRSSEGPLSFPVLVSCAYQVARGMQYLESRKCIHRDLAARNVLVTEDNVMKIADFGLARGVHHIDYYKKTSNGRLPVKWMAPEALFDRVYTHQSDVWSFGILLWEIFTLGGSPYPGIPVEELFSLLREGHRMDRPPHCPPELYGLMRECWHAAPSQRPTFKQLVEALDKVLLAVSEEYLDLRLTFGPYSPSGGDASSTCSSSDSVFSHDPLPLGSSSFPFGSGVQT
FGFR1 (h), sequence (P11362 22-822): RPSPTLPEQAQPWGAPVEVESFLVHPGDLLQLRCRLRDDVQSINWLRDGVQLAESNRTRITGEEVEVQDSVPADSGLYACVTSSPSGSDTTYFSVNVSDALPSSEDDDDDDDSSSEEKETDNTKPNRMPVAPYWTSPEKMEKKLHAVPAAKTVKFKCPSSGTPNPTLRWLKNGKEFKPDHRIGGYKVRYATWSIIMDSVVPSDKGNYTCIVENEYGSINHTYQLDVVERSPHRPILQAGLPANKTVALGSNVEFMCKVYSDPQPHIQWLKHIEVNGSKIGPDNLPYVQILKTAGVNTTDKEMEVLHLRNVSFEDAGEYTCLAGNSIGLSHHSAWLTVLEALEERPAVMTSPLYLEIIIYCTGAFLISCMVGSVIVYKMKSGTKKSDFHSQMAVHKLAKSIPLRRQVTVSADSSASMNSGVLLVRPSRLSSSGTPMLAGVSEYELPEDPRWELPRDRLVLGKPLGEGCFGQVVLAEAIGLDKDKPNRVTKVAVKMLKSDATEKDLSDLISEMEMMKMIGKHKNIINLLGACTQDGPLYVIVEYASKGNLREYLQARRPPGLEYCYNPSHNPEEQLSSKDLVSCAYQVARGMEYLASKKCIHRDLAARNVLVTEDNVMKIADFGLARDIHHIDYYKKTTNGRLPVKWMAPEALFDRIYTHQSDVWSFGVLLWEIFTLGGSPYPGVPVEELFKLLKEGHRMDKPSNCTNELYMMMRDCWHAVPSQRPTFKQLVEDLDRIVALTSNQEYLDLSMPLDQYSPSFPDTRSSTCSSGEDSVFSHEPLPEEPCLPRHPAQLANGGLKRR
T2 sequence (P22607 whole entry, change not shown): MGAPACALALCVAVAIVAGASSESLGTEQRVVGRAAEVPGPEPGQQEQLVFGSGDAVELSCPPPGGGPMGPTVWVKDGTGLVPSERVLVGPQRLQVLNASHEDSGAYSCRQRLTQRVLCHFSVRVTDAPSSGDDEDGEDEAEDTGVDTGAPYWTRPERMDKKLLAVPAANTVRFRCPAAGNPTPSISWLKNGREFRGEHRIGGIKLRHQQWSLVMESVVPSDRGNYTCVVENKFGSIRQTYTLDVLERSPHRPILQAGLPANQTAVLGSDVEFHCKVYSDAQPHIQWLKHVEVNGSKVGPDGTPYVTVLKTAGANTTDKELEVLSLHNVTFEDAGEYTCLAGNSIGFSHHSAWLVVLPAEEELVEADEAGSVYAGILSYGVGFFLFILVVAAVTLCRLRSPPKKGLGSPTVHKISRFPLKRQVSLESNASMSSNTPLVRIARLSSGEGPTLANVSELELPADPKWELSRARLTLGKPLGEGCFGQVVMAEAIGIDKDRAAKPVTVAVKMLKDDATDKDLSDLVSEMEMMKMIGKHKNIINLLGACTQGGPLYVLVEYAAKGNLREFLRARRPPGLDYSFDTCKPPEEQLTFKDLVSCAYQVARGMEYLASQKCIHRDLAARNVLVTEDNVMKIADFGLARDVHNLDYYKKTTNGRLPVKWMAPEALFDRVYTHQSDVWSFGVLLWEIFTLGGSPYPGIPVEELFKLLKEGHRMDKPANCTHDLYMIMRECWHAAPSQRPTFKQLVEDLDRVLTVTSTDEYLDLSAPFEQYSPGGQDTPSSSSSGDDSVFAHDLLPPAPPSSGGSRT
FGFR3 (h), sequence (P22607 23-806): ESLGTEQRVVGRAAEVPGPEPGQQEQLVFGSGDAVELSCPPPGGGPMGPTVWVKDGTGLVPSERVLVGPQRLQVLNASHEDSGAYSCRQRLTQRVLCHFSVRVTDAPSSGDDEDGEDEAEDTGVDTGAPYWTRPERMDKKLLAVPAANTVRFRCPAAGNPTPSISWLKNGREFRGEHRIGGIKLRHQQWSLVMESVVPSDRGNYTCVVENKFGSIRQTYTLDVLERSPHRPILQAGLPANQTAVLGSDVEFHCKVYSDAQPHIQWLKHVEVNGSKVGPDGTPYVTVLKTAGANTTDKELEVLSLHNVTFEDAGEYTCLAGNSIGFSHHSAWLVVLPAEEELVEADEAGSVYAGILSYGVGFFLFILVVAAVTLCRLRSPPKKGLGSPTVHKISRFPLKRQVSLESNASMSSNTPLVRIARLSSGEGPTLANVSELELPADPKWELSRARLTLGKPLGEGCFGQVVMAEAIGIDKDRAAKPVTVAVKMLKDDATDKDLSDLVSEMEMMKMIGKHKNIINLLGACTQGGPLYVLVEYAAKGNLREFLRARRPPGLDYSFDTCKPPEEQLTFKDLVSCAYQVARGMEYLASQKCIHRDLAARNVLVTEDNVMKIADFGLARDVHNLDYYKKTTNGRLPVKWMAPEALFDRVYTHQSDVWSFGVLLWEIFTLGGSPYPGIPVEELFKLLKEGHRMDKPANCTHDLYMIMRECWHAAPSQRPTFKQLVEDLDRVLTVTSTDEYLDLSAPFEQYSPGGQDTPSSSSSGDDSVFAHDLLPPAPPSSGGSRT
T1 sequence (P11362 whole entry, change not shown): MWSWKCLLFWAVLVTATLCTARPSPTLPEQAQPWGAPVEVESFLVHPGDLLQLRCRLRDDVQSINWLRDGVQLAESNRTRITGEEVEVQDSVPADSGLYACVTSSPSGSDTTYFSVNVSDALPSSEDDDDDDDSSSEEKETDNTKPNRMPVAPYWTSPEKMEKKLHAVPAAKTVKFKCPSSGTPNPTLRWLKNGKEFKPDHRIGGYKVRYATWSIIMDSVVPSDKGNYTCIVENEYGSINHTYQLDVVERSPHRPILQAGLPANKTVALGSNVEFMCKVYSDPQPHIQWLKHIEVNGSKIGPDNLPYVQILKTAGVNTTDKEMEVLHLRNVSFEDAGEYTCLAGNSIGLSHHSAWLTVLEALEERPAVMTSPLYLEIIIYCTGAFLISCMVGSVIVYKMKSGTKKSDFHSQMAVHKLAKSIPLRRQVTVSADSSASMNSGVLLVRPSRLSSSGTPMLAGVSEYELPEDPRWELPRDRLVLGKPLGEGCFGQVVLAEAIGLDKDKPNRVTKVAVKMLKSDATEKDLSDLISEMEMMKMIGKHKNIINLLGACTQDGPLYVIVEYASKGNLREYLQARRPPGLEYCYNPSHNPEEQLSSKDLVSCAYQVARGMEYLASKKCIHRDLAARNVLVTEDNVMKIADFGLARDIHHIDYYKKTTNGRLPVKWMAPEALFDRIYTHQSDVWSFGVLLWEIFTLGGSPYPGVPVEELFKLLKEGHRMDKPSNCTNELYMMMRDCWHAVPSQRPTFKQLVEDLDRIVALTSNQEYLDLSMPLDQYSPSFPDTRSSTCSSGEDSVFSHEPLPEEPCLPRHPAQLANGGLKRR

Structure (SMILES)	IC50 (FGFR1 (h); [6])	IC50 (FGFR2 (h); [6])	IC50 (FGFR3 (h); [6])	pIC50 (FGFR4 (h); [6])	IC50 (KDR (h); [6])	BAF3-FGFR1 (MIN IL3) pIC50 [1]	IC50 [2]	BAF3-FGFR3 (MIN IL3) pIC50 [3]	IC50 [4]	BAF3-FGFR4 pIC50 [5]	IC50 (FGFR1 (h))	IC50 (FGFR2 (h))	IC50 (FGFR3 (h))	pIC50 (FGFR4 (h))	IC50 (KDR (h))
COc1cc(OC)c(Cl)c(N(CC2CCC(=O)N2)c2ccc3ncc(-c4cnn(C)c4)nc3n2)c1Cl (single isomer, unassigned) [Compound 88]	12.9 nM	9.12 nM	6.76 nM	7.37	102 nM	6.68	> 10000 nM	6.57	> 10000 nM	5.65					
COc1cc(OC)c(F)c(N(Cc2nc(C)c[nH]2)c2ccc3ncc(-c4cnn(C)c4)nc3n2)c1 [Compound 135]						8.82	> 10000 nM	8.25	> 10000 nM	8.05	1.17 nM	1.78 nM	1.48 nM	8.90	8.71 nM
CNCCN(c1ccc2ncc(-c3cn[nH]c3)nc2n1)c1c(F)c(OC)cc(OC)c1F [Compound 106]	1.86 nM	2.14 nM	1.48 nM	8.33	25.1 nM	7.86	> 10000 nM	~7.12	> 10000 nM	~6.65					
COc1cc(OC)c(F)c(N(Cc2c[nH]cn2)c2ccc3ncc(-c4cnn(C)c4)nc3n2)c1 [Compound 41]	0.363 nM	1.32 nM	0.589 nM	9.12	5.37 nM	7.99	> 10000 nM	8.08	> 10000 nM	7.47					
COc1cc(OC)c(F)c(N(CC2COC(=O)N2)c2ccc3ncc(-c4cnn(C)c4)nc3n2)c1 (single isomer, unassigned) [Compound 111]	1.15 nM	2 nM	1 nM	8.80	30.9 nM	7.79	> 10000 nM	7.58	> 10000 nM	7.27					
COc1cc(OC)c(F)c(N(CC2COC(=O)N2)c2ccc3ncc(-c4cnn(C)c4)nc3n2)c1 (stereo not drawn) [Compound 124]						~7.16	> 10000 nM	~7.16	> 10000 nM	~6.64	3.09 nM	2.75 nM	1.55 nM	8.37	60.3 nM
COCC(O)CN(c1ccc2ncc(-c3cnn(C)c3)nc2n1)c1cc(OC)cc(OC)c1F (single isomer, unassigned) [Compound 58]	1.35 nM	1.95 nM	1.26 nM	8.67	34.7 nM	7.51	> 10000 nM	7.43	> 10000 nM	7.09					
COc1ccc(Cl)c(/N=c2\ccc3ncc(-c4cnn(C)c4)nc3n2CC2CCC(=O)N2)c1Cl (stereo not drawn) [Compound 92]	61.7 nM	30.2 nM	46.8 nM	6.25	309 nM	<5	> 10000 nM	~5.61	> 10000 nM	<5					
COc1cc(OC)c(F)c(/N=c2\ccc3ncc(-c4cnn(C)c4)nc3n2CC2CCC(=O)N2)c1F (stereo not drawn) [Compound 193]	0.55 nM	0.794 nM	0.417 nM	9.02	7.24 nM	8.01	> 10000 nM	~8.06	> 10000 nM	7.00					
COc1cc(OC)c(F)c(N(Cc2nc[nH]c2C)c2ccc3ncc(-c4cnn(C)c4)nc3n2)c1 [Compound 109]	1.15 nM	2.29 nM	1.45 nM	8.57	20 nM	7.85	> 10000 nM	~7.65	> 10000 nM	~7.05					
COc1cc(OC)c(F)c(N(CCNC(C)C)c2ccc3ncc(-c4cnn(C)c4)nc3n2)c1F [Compound 5]	1.58 nM	3.98 nM	1.58 nM	8.20	79.4 nM	8.7	6310 nM	8.3	> 10000 nM	~8.21					
COc1cc(OC)c(F)c(N(Cc2nccn2C)c2ccc3ncc(-c4cnn(C)c4)nc3n2)c1 [Compound 131]						7.62	> 10000 nM	7.25	> 10000 nM	6.62	2.14 nM	2.63 nM	2.95 nM	8.13	19.1 nM
